Tested on: patients after acute myocardial infarction
Assay: Life quality, Seattle Angina Questionnaire (SAQ), same clinical trial
Assay type: in vivo, human
Settings: FAS, Follow-up
Source text: 3508 patients who were in accordance with the diagnostic standards of AMI for 28 days to 2 years and differentiated as Qi deficiency and blood stagnation syndrome by TCM were studied. 0.5 g Chinese medicine composition prepared by the method of EXAMPLE 1 (Coded as QSYQ) was administrated half an hour after meal, 3 times per day.
There were 19 questions in the Seattle angina questionnaire (SAQ), including 5 parts: physical limitation (PL), anginal stability (AS), anginal frequency (AF), treatment satisfaction (TS) and disease perception (DP). After being given necessary explanation by doctors, the questions were answered independently by patients.
They included the overall survival time, angina pectoris score, TCM symptom score and life quality score, where angina pectoris score, TCM symptom score and life quality score were evaluated at randomization, in 1st, 3rd, 6th, 9th, 12th month after treatment and 18th month after follow-up.
All evaluation results of SAQ were described during the period of observation, and Wilcoxon rank sum test was used for inter-group comparison.
The evaluation results in the SAQ were depicted in different observations, and inter-group comparison was tested by Wilcoxon Rank-sum test.

[1] = second line headed Not limited (r60)

Compound: CC(=O)Oc1ccccc1C(=O)O [Control group, aspirine]
- SAQ 7th question, Mostly satisfied: number of patients: 908
- SAQ 7th question, Partly satisfied: % of patients: (6.68%)
- SAQ 7th question, Partly satisfied: number of patients: 97
- SAQ Question 1-1 Mildly limited, number of patients: 6
- SAQ Question 1-1 Mildly limited, percent of patients: (0.42%)
- SAQ Question 1-1 Moderately limited, number of patients: 1
- SAQ Question 1-1 Moderately limited, percent of patients: (0.07%)
- SAQ Question 1-1 Not limited, number of patients: 1386
- SAQ Question 1-1 Not limited, percent of patients: (95.98%)
- SAQ Question 1-1 Other reasons, number of patients: 5
- SAQ Question 1-1 Other reasons, percent of patients: (0.35%)
- SAQ Question 1-1 Severely limited, number of patients: 1
- SAQ Question 1-1 Severely limited, percent of patients: (0.07%)
- SAQ Question 1-1 Slightly limited, number of patients: 45
- SAQ Question 1-1 Slightly limited, percent of patients: (3.12%)
- SAQ Question 1-2 Mildly limited, number of patients: 8
- SAQ Question 1-2 Mildly limited, percent of patients: (0.55%)
- SAQ Question 1-2 Moderately limited, number of patients: 0
- SAQ Question 1-2 Moderately limited, percent of patients: (0.00%)
- SAQ Question 1-2 Not limited, number of patients: 1370
- SAQ Question 1-2 Not limited, percent of patients: (94.88%)
- SAQ Question 1-2 Severely limited, number of patients: 2
- SAQ Question 1-2 Severely limited, percent of patients: (0.14%)
- SAQ Question 1-2 Slightly limited, number of patients: 57
- SAQ Question 1-2 Slightly limited, percent of patients: (3.95%)
- SAQ Question 1-6: Mildly limited, patients (%): (11.47%)
- SAQ Question 1-6: Moderately limited, patients (%): (9.24%)
- SAQ Question 1-6: Not limited, patients (%): (42.11%)
- SAQ Question 1-6: Other reasons, patients (%): (0.83%)
- SAQ Question 1-6: Severely limited, patients (%): (2.22%)
- SAQ Question 1-6: Slightly limited, patients (%): (34.12%)
- SAQ Question 1-7: Mildly limited, patients (%): (22.01%)
- SAQ Question 1-7: Moderately limited, patients (%): (6.75%)
- SAQ Question 1-7: Not limited, patients (%): (22.08%)
- SAQ Question 1-7: Other reasons, patients (%): (2.53%)
- SAQ Question 1-7: Severely limited, patients (%): (11.67%)
- SAQ Question 1-7: Slightly limited, patients (%): (34.95%)
- SAQ Question 1-8: Mildly limited, patients (%): (25.02%)
- SAQ Question 1-8: Moderately limited, patients (%): (11.91%)
- SAQ Question 1-8: Not limited, patients (%): (15.02%)
- SAQ Question 1-8: Other reasons, patients (%): (3.19%)
- SAQ Question 1-8: Severely limited, patients (%): (14.74%)
- SAQ Question 1-8: Slightly limited, patients (%): (30.12%)
- SAQ Question 1-2 Not limited, number of patients [1]: 7
- SAQ Question 1-2 Not limited, percent of patients [1]: (0.48%)
- SAQ 2nd question: Clearly increased, % of cases: (0.21%)
- SAQ 2nd question: Clearly increased, cases: 3
- SAQ 2nd question: Clearly reduced, % of cases: (27.82%)
- SAQ 2nd question: Clearly reduced, cases: 402
- SAQ 2nd question: Same, % of cases: (39.24%)
- SAQ 2nd question: Same, cases: 567
- SAQ 2nd question: Slightly increased, % of cases: (7.40%)
- SAQ 2nd question: Slightly increased, cases: 107
- SAQ 2nd question: Slightly reduced, % of cases: (25.33%)
- SAQ 2nd question: Slightly reduced, cases: 366
- SAQ 3rd question: 1-2 times per week, % of cases: (25.33%)
- SAQ 3rd question: 1-2 times per week, cases: 366
- SAQ 3rd question: 1-3 times per day, % of cases: (7.40%)
- SAQ 3rd question: 1-3 times per day, cases: 107
- SAQ 3rd question: <1 time per week, % of cases: (27.82%)
- SAQ 3rd question: <1 time per week, cases: 402
- SAQ 3rd question: No onset, % of cases: (0.00%)
- SAQ 3rd question: No onset, cases: 0
- SAQ 3rd question: ≧3 times per week, % of cases: (39.24%)
- SAQ 3rd question: ≧3 times per week, cases: 567
- SAQ 3rd question: ≧4 times per day, % of cases: (0.21%)
- SAQ 3rd question: ≧4 times per day, cases: 3
- SAQ Question 1-3: Mildly limited, number of patients: 30
- SAQ Question 1-3: Mildly limited, percent of patients: (2.08%)
- SAQ Question 1-3: Moderately limited, number of patients: 6
- SAQ Question 1-3: Moderately limited, percent of patients: (0.42%)
- SAQ Question 1-3: Not limited, number of patients: 1206
- SAQ Question 1-3: Not limited, percent of patients: (83.58%)
- SAQ Question 1-3: Other reasons, number of patients: 9
- SAQ Question 1-3: Other reasons, percent of patients: (0.62%)
- SAQ Question 1-3: Severely limited, number of patients: 2
- SAQ Question 1-3: Severely limited, percent of patients: (0.14%)

From patent US9211310B2, “Use of a Chinese medicine composition in preparing medicaments for treating secondary prevention of myocardial infarction” (TASLY PHARMACEUTICAL GROUP CO., LTD, priority 2010, dated 2015)
